Measurements: patent publication US20090181976A1, “Use of Compounds Binding to the Sigma Receptor for the Treatment of Metabolic Syndrome” (priority 2006, published 2009)

Tests used:
[1] = biological target: sigma-1 (σ1) receptors (Homo sapiens, UniProt Q99720); conditions: statement on literature knowledge; cited from earlier work
[2] = test system: obese (diet-induced obesity) wild type mice; assay: Triglyceride levels in blood of high fat diet-fed obese mice after 9 days of treatment; format: in vivo; conditions: male C57BL/6J mice on high fat diet, 50 mg/Kg s.c., once a day, blood on day 10, mean±standard deviation, p<0.05 vs vehicle control (91.75±32.88)
Protocol: Pharmacologic approach: Treatment of obese (diet-induced obesity) wild type mice with a sigma-1 receptor antagonist results in a significant reduction in the concentration of triglycerides in blood.
Wild type male mice from the C57BL/6J strain were used in these experiments. Mice of 8-10 weeks of age were fed for two months with high fat diet (49% fat content; Harlan Ibérica, TD97366). Treatment was administered subcutaneously, once a day, for 9 days. Treated animals received daily (for 9 days) a single dose of 50 mg/kg of BD-1063 (a sigma-1 receptor antagonist). Control animals received daily vehicle (saline). During the period of treatment, mice had free access to water and food (high fat diet). At the end of the treatment, on day 10, blood samples were obtained through intracardiac puncture and triglyceride levels were measured using the Cholestech LDX blood analyzer. Student t test was applied to determine statistical significance.
Values are means±standard deviation. Units are expressed as mg/100 mL.

sigma-1 (σ1) receptors, sequence (Q99720 whole entry): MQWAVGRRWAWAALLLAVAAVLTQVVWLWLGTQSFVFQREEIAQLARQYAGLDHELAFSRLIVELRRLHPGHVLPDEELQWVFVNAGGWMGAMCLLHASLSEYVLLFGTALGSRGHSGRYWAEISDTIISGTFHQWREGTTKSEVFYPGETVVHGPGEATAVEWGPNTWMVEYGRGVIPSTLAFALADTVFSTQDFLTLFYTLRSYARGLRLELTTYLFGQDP

Row | Structure (SMILES) | affinity of sigma-1 receptors [1] | Triglyceride Levels [2] [mg/100 mL]
1 | CC(C)=CCN1CCC2(C)c3cc(O)ccc3CC1C2C (centres unmarked) [pentazocine] | very high affinity | 
2 | CN1CCN(CCc2ccc(Cl)c(Cl)c2)CC1 [BD-1063] |  | 56.8±9.41
